Experimental findings from patent publication US10285994B2, “Method of preventing or treating osteoporosis by neddylation inhibitor” (Chang Gung University, priority 2017, dated 2019) are described below.

The assay has as its system JNK (pJNK). Kind of assay: Western blot, sRANKL-induced JNK phosphorylation in RAW264.7 cells. The assay is classed as cell-based, mouse. As to conditions: RAW264.7, 30 min pre-treatment, sRANKL 50 ng/ml, FIG. 3A-3B. On the procedure: FIGS. 3A-3D are data collected from Western blot analysis that respectively depict the expression of specified protein extracted from the RAW264.7 cells, which are pre-treated with specified concentrations of MLN4924 for 30 minutes followed by the stimulation of sRANKL (50 ng/ml) according to example 2 of the present disclosure. FIG. 3A: the time course effect of MLN4924 on the phosphorylations of ERK (pERK), P38 (pP38) and JNK (pJNK). FIG. 3B: the dose effect of MLN4924 on the phosphorylations of ERK (pERK), P38 (pP38) and JNK (pJNK). FIG. 3C: the time course effect of MLN4924 on the expression of NFATc-1. FIG. 3D: the dose effect of MLN4924 on the expression of NFATc-1. Mock: untreated control; R: sRANKL; M: MLN4924.
The RAW264.7 cells were starved with serum-free medium for six hours and then treated with the specified treatments. At indicated time points, the cells were washed with cold phosphate-buffered saline (PBS) and lysed in RIPA buffer containing complete protease inhibitor cocktail (Roche). The cell lysates were separated by SDS-PAGE followed by Western blotting with the indicated antibodies, including NEDD8, APPBP1, UBA3.
Specifically, the inhibitory effect increased with an increase in the MLN4924 concentration (FIG. 3B).
In general terms: In western blotting, separated proteins are transferred to a membrane and probed.

As for `NS(=O)(=O)OC[C@@H]1C[C@@H](n2ccc3c(N[C@H]4CCc5ccccc54)ncnc32)C[C@@H]1O` [MLN4924, (1S,2S,4R)-4-(4-((1S)-2,3-Dihydro-1H-inden-1-ylamino)-7H-pyrrolo(2,3-d)pyrimidin-7-yl)-2-hydroxycyclopentyl) methyl sulphamate], the “sRANKL-upregulated phosphorylation of JNK (pJNK)” value is on record as “inhibited”.
